In patent publication US5932742A, “Arylsulfonylimidazolone derivatives as an antitumor agent” (priority 1996, dated 1999):
≈ marks a conversion by molar mass, not a printed value. Structures can show the parent of a compound that is named as a salt. Where two headings read alike, the source gives them in different places.

Legend:
Type in all cases: cell-based
[1] = test system: A549 (ATCC CCL 185): human lung carcinoma; test: In vitro antitumor activity, MTT assay, A549; conditions: Homo sapiens, A549, 48 h
Method: (§1) In vitro antitumor activity against human tumor cell lines
(§2) In vitro antitumor activity of the compounds according to the present invention was determined by MTT assay method against the following human tumor cell lines:
A549 (ATCC CCL 185): human lung carcinoma
(§3) In this test, the known antineoplastic compounds, Doxorubicin and Sulofenur, were used as the comparative agents.
(§4) Each of the tumor cells was cultured in RPMI 1640 media containing 10% fetal bovine serum, 100 IU/ml penicillin and 100 μg/ml streptomycin, and then periodically subcultured once or twice per week in trypsin-EDTA solution containing 0.05% trypsin and 0.53mM EDTA.4Na. The human tumor cell line thus obtained (10,000cells/100 μl) was plated on 96-well microplate and then cultured for 24 hrs at 37° C. in a 5% CO2 incubator. Test compound was dissolved in DMSO, sterilized with 0.22 μm PVDF filter, and then serially 5-fold diluted from 40 μg/ml to 0.00256μg/ml. 100 μl of the sample solution thus prepared and RPMI 1640 medium only (control group) were added to 96-well microplate containing the human tumor cell, respectively. The final concentration of the test compound was in the range from 20 μg/ml to 0.00128 μg/ml and the concentration of DMSO was below 0.5%. The cells were cultured for 48 hrs at 37° C. in a 5% CO2 incubator. MTT(3-(4,5-Dimethylthiazole-2-yl)-e,5-diphenyltetrazoliumbromide) was dissolved in physiological saline in a concentration of 2 mg/ml and the resulting solution was filtered through 0.22 μm PTFE filter. 25 μl of MTT solution thus prepared was added to each well of 96-well microplate and incubated for additional 4 hrs at 37° C. in a 5% CO2 incubator. Then, the content of microplate was centrifuged at 1000 rpm for 10 min, and supernatant was removed by flicking. The formazan formed from MTT by mitochondrial succinate dehydrogenase was dissolved in 100 μl of DMSO. The absorbance of each well was measured at 540nm by micro ELISA reader and the cytotoxicity was calculated by dividing the absorbance of test group by the absorbance of control group. After the calculated cytotoxicity (%) was plotted, the concentration of 50% tumor growth inhibition concentration (IC50) was estimated by Linear-Regression method.

[2] = test system: KB (ATCC CCL 17): human epidermoid carcinoma; test: In vitro antitumor activity, MTT assay, KB; conditions: Homo sapiens; Table 1; MTT, 48 hrs; read-out: IC50 (KB)
Method: as §1, §2
KB (ATCC CCL 17): human epidermoid carcinoma
as §3, §4

[3] = test system: Colo205 (ATCC CCL 222): human colon adenocarcinoma; test: In vitro antitumor activity, MTT assay, Colo205; conditions: Homo sapiens
Method: as §1, §2
Colo205 (ATCC CCL 222): human colon adenocarcinoma
as §3, §4

[4] = test system: SK-OV-3 (ATCC HTB 77): human ovarian adenocarcinoma; test: In vitro antitumor activity, MTT assay, SK-OV-3; conditions: Homo sapiens
Method: as §1, §2
SK-OV-3 (ATCC HTB 77): human ovarian adenocarcinoma
as §3, §4

[5] = test system: K562 (ATCC CCL 243): human chronic myelogenous leukemia; test: In vitro antitumor activity, MTT assay, K562; conditions: Homo sapiens, K562, 48 h
Method: as §1, §2
K562 (ATCC CCL 243): human chronic myelogenous leukemia
as §3, §4

[6] = COLO 205, Table 1, 48 hrs, read-out: IC50 (Colo205)
[7] = COLO 205, Table 3, 48 hrs, read-out: IC50 (Col205)
[8] = COLO 205, Table 5, 48 hrs, read-out: IC50 (Colo205)

Row | Structure (SMILES) | IC50 ([1]; Table 1) [µg/mL] | IC50 [2] [µg/mL] | IC50 [3, 6] [µg/mL] | IC50 ([4]; SK-OV-3, Table 1, 48 hrs) [µg/mL] | IC50 ([1]; Table 3) [µg/mL] | IC50 [3, 7] [µg/mL] | IC50 ([4]; SK-OV-3, Table 3, 48 hrs) [µg/mL] | IC50 ([5]; Table 3, read-out: IC50 (K562)) [µg/mL] | further results
1 | CCOC(=O)N1CCc2cc(S(=O)(=O)n3cc(-c4ccccc4)[nH]c3=O)ccc21 [Example 1, 4-phenyl-1-(N-ethoxycarbonylindoline-5-sulfonyl)-2-imidazolone] | 0.374 (≈ 0.905 µM) | 0.017 (≈ 0.0411 µM) | 0.906 (≈ 2.19 µM) | 10.1 (≈ 24.3 µM) |  |  |  |  | 
2 | CCNC(=O)N1CCc2cc(S(=O)(=O)n3cc(-c4ccccc4)[nH]c3=O)ccc21 [Example 2, 4-phenyl-1-(N-ethylcarbamoylindoline-5-sulfonyl)-2-imidazolone] | 0.325 (≈ 0.788 µM) | 16.7 (≈ 40.4 µM) |  | 0.537 (≈ 1.3 µM) |  |  |  |  | 
3 | CCNC(=O)N1c2ccc(S(=O)(=O)n3cc(-c4ccccc4)[nH]c3=O)cc2CC1C (centres unmarked) [Example 3, 4-phenyl-1-(N-ethylcarbamoyl-2-methylindoline-5-sulfonyl)-2-imidazolone] | 0.111 (≈ 0.26 µM) | 0.006 (≈ 0.0141 µM) | 0.265 (≈ 0.621 µM) | 0.509 (≈ 1.19 µM) |  |  |  |  | 
4 | CCCNC(=O)N1c2ccc(S(=O)(=O)n3cc(-c4ccccc4)[nH]c3=O)cc2CC1C (centres unmarked) [Example 5, 4-phenyl-1-(N-propylcarbamoyl-2-methylindoline-5-sulfonyl)-2-imidazolone] | 0.09 (≈ 0.204 µM) | 0.105 (≈ 0.238 µM) | 0.519 (≈ 1.18 µM) | 0.146 (≈ 0.331 µM) |  |  |  |  | 
5 | CC(C)NC(=O)N1c2ccc(S(=O)(=O)n3cc(-c4ccccc4)[nH]c3=O)cc2CC1C (centres unmarked) [Example 7, 4-phenyl-1-(N-isopropylcarbamoyl-2-methylindoline-5-sulfonyl)-2-imidazolone] | 0.105 (≈ 0.238 µM) | 0.162 (≈ 0.368 µM) | 0.102 (≈ 0.232 µM) | 1.07 (≈ 2.43 µM) |  |  |  |  | 
6 | CC(C)(C)NC(=O)N1CCc2cc(S(=O)(=O)n3cc(-c4ccccc4)[nH]c3=O)ccc21 [Example 8, 4-phenyl-1-(N-t-butylcarbamoylindoline-5-sulfonyl)-2-imidazolone] | 0.02 (≈ 0.0454 µM) | 0.002 (≈ 0.00454 µM) | 0.549 (≈ 1.25 µM) | 2.67 (≈ 6.07 µM) |  |  |  |  | 
7 | O=C(c1ccc([N+](=O)[O-])cc1)N1CCc2cc(S(=O)(=O)n3cc(-c4ccccc4)[nH]c3=O)ccc21 [Example 9, 4-phenyl-1-[N-(4-nitrobenzoyl)indoline-5-sulfonyl]-2-imidazolone] | 0.528 (≈ 1.08 µM) | 0.045 (≈ 0.0917 µM) | 0.651 (≈ 1.33 µM) | 0.106 (≈ 0.216 µM) |  |  |  |  | 
8 | Nc1ccc(C(=O)N2CCc3cc(S(=O)(=O)n4cc(-c5ccccc5)[nH]c4=O)ccc32)cc1 [Example 10, 4-phenyl-1-[N-(4-aminobenzoyl)indoline-5-sulfonyl]-2-imidazolone.HCl] | 0.23 | 0.0001 | 0.334 | 0.529 |  |  |  |  | 
9 | CC1Cc2cc(S(=O)(=O)n3cc(-c4ccccc4)[nH]c3=O)ccc2N1C(=O)c1ccc([N+](=O)[O-])cc1 (centres unmarked) [Example 11, 4-phenyl-1-[N-(4-nitrobenzoyl)-2-methylindoline-5-sulfonyl]-2-imidazolone] | 0.234 (≈ 0.464 µM) | 0.64 (≈ 1.27 µM) | 1.11 (≈ 2.2 µM) | 0.453 (≈ 0.898 µM) |  |  |  |  | 
10 | O=C(c1ccccc1)N1CCc2cc(S(=O)(=O)n3cc(-c4ccccc4)[nH]c3=O)ccc21 [Example 13, 4-phenyl-1-(N-benzoylindoline-5-sulfonyl)-2-imidazolone] | 0.199 (≈ 0.447 µM) | 0.028 (≈ 0.0629 µM) | 0.644 (≈ 1.45 µM) | 1.22 (≈ 2.73 µM) |  |  |  |  | 
11 | CCOc1ccc(C(=O)N2CCc3cc(S(=O)(=O)n4cc(-c5ccccc5)[nH]c4=O)ccc32)cc1 [Example 14, 4-phenyl-1-[N-(4-ethoxybenzoyl)indoline-5-sulfonyl]-2-imidazolone] | 0.445 (≈ 0.909 µM) | 0.107 (≈ 0.219 µM) | 1.28 (≈ 2.62 µM) | 0.926 (≈ 1.89 µM) |  |  |  |  | 
12 | O=C(NC1CCCCC1)N1CCc2cc(S(=O)(=O)N3CC(c4ccccc4)NC3=O)ccc21 (centres unmarked) [Example 33, 4-phenyl-1-(N-cyclohexylcarbamoylindoline-5-sulfonyl)-4,5-dihydro-2-imidazolone] |  |  |  |  | 0.003 (≈ 0.0064 µM) | 0.172 (≈ 0.367 µM) | 0.043 (≈ 0.0918 µM) | 0.0037 (≈ 0.0079 µM) | 
13 | Nc1ccc(NC(=O)N2CCc3cc(S(=O)(=O)N4CC(c5ccccc5)NC4=O)ccc32)cc1 (centres unmarked) [Example 35, 4-phenyl-1-[N-(4-aminophenyl)carbamoylindoline-5-sulfonyl)-4,5-dihydro-2-imidazolone] |  |  |  |  | 0.286 (≈ 0.599 µM) | 3.24 (≈ 6.78 µM) | 0.763 (≈ 1.6 µM) | 0.004 (≈ 0.00838 µM) | 
14 | COc1ccc(NC(=O)N2CCc3cc(S(=O)(=O)N4CC(c5ccccc5)NC4=O)ccc32)cc1 (centres unmarked) [Example 36, 4-phenyl-1-[N-(4-methoxyphenyl)carbamoylindoline-5-sulfonyl]-4,5-dihydro-2-imidazolone] |  |  |  |  | 0.18 (≈ 0.365 µM) | 0.391 (≈ 0.794 µM) | 0.047 (≈ 0.0954 µM) | 6.92 (≈ 14 µM) | 
15 | CSc1ccc(NC(=O)N2CCc3cc(S(=O)(=O)N4CC(c5ccccc5)NC4=O)ccc32)cc1 (centres unmarked) [Example 37] |  |  |  |  | 2.34 (≈ 4.6 µM) | 0.71 (≈ 1.4 µM) | 0.716 (≈ 1.41 µM) | > 20 | 
16 | CNC(=S)N1CCc2cc(S(=O)(=O)N3CC(c4ccccc4)NC3=O)ccc21 (centres unmarked) [Example 38, 4-phenyl-1-(N-methylthiocarbamoylindoline-5-sulfonyl)-4,5-dihydro-2-imidazolone] |  |  |  |  | 0.092 (≈ 0.221 µM) | 0.65 (≈ 1.56 µM) | 1.98 (≈ 4.75 µM) | 0.00452 (≈ 0.0109 µM) | 
17 | CCNC(=S)N1CCc2cc(S(=O)(=O)N3CC(c4ccccc4)NC3=O)ccc21 (centres unmarked) [Example 39, 4-phenyl-1-(N-ethylthiocarbamoylindoline-5-sulfonyl)-4,5-dihydro-2-imidazolone] |  |  |  |  | 0.438 (≈ 1.02 µM) | 9.11 (≈ 21.2 µM) | 3.17 (≈ 7.36 µM) | 0.567 (≈ 1.32 µM) | 
18 | CCCCNC(=S)N1CCc2cc(S(=O)(=O)N3CC(c4ccccc4)NC3=O)ccc21 (centres unmarked) [Example 41, 4-phenyl-1-(N-butylthiocarbamoylindoline-5-sulfonyl)-4 5-dihydro-2-imidazolone] |  |  |  |  | 0.584 (≈ 1.27 µM) | 2.4 (≈ 5.23 µM) | 0.897 (≈ 1.96 µM) | 2.05 (≈ 4.48 µM) | 
19 | O=C1NC(c2ccccc2)CN1S(=O)(=O)c1ccc2c(c1)CCN2C(=S)Nc1ccccc1 (centres unmarked) [Example 42, 4-phenyl-1-(N-phenylthiocarbamoylindoline-5-sulfonyl)-4,5-dihydro-2-imidazolone] |  |  |  |  | 0.095 (≈ 0.198 µM) | 2.14 (≈ 4.46 µM) | 10.5 (≈ 21.9 µM) | 0.017 (≈ 0.0355 µM) | 
20 | COc1ccccc1NC(=O)N1CCc2cc(S(=O)(=O)N3CC(c4ccccc4)NC3=O)ccc21 (centres unmarked) [Example 44, 4-phenyl-1-[N-(2-methoxyphenyl)carbamoylindoline-5-sulfonyl]-4,5-dihydro-2-imidazolone] |  |  |  |  | 0.135 (≈ 0.274 µM) | 1.47 (≈ 2.97 µM) | 0.273 (≈ 0.554 µM) | 0.29 (≈ 0.589 µM) | 
21 | Cc1ccc(NC(=O)N2CCc3cc(S(=O)(=O)N4CC(c5ccccc5)NC4=O)ccc32)cc1 (centres unmarked) [Example 45, 4-phenyl-1-[N-(4-methylphenyl)carbamoylindoline-5-sulfonyl]-4,5-dihydro-2-imidazolone] |  |  |  |  | 0.311 (≈ 0.653 µM) | 3.27 (≈ 6.85 µM) | 0.813 (≈ 1.71 µM) | 1.03 (≈ 2.17 µM) | 
22 | O=C1NC(c2ccccc2)CN1S(=O)(=O)c1ccc2c(c1)CCN2C(=S)Nc1ccc(F)cc1 (centres unmarked) [Example 46, 4-phenyl-1-[N-(4-fluorophenyl)thiocarbamoylindoline-5-sulfonyl]-4,5-dihydro-2-imidazolone] |  |  |  |  | 3.29 (≈ 6.63 µM) | 8.74 (≈ 17.6 µM) | 3.13 (≈ 6.3 µM) | 3.94 (≈ 7.94 µM) | 
23 | C[C@H](N)C(=O)Nc1ccc(C(=O)N2CCc3cc(S(=O)(=O)N4C[C@H](c5ccccc5)NC4=O)ccc32)cc1 [Example 66, (S)-(+)-4-phenyl-1-[N-{4-(2-aminopropanoyl)aminobenzoyl}indoline-5-sulfonyl]-4,5-dihydro-2-imidazolone.HCl] |  |  |  |  |  |  |  |  | IC50 ([1]; Table 5): 0.112 µg/mL; IC50 [3, 8]: 0.77 µg/mL; IC50 ([4]; SK-OV-3, Table 5, 48 hrs): 0.259 µg/mL; IC50 ([5]; Table 5, read-out: IC50 (K562)): 3.57 µg/mL
24 | NCC(=O)Nc1ccc(C(=O)N2CCc3cc(S(=O)(=O)N4C[C@H](c5ccccc5)NC4=O)ccc32)cc1 [Example 67, (S)-(+)-4-phenyl-1-[N-{4-(2-aminoacetyl)aminobenzoyl}indoline-5-sulfonyl]-4,5-dihydro-2-imidazolone.HCl] |  |  |  |  |  |  |  |  | IC50 ([1]; Table 5): 0.254 µg/mL; IC50 [3, 8]: 0.971 µg/mL; IC50 ([4]; SK-OV-3, Table 5, 48 hrs): 0.855 µg/mL; IC50 ([5]; Table 5, read-out: IC50 (K562)): 1.32 µg/mL
